Entries after “also recorded” stand apart in the source; their conditions may differ. Where two headings read alike, the source gives them in different places.
Assays:
[1] = system: infiltration of immune cells into the spinal cord; test: Histology of immune cell infiltration into the spinal cord in EAE mice (eosin/hematoxylin); type: in vivo, SJL female mice; conditions: sixty days following injection of PLP; vs control non-treated mice
Description: (§1) Histology Following s.c. injection of PLP (139-151) mixed with CFA as well as two pertussis-toxin injections and appearance of paralysis signs in the mice (usually after 9-11 days after initiation of EAE) treatment of mice began.
(§2) The treatments were given daily, five times a week and usually continued for about 60 days. GA were given s.c. (at an injection dose of 1 mg/mouse), and CBD at a dose of 5 mg/kg were administrated i.p. (intraperitoneal).
Studies of monotherapies (CBD or Copaxone) and the combination therapy (CBD plus Copaxone) also included histological studies of infiltration of immune cells into the spinal cord in EAE mice (i.e., MS core pathology).

EAE model in mice = test: Suppression of PLP (139-151)-induced relapsing-remitting EAE, daily clinical score; type: in vivo, SJL/J female mice; conditions: monotherapy vs control (vehicle); CBD 5 mg/kg i.p., Copaxone 1 mg/mouse s.c., daily five times a week; FIG. 1-3
Excerpt: SJL/J female mice were purchased from Harlen. Mice at the age of 6-7 weeks old were used to the in the experiments described below. All the experiments were done in accordance with the protocol approved by the Ethics Committee of the Hebrew University of Jerusalem. The mice were housed in cages with free access to food and water. They were maintained in 12 hr. light/dark cycle at room temperature.
Mice were immunized with PLP (139-151) emulsified in CFA together with pertussis vaccine according to the method described in Hooke Laboratories protocols (http://hookelabs.com/protocols/eaeAISJL). PLP is used to induce relapsing-remitting (RR)-EAE model. In the EAE experiments, SJL/J female mice at an age of 6-7 weeks old were used. Mice were observed daily for the appearance of neurological paralytic symptoms (6-7 mice/group), and were scored in scale from 0-5 denoting as follows:
Raw p-value were obtained from exact one-tail Mann Whitney tests and adjusted for multiple comparisons (within each experiment) using Holm modification of the Bonferroni correction
as §1
The treatments were given daily, five times a week and usually continued for about 60 days. […]

[2] = system: skin at the site of subcutaneous Copaxone injection; test: Cutaneous wound at the site of repeated s.c. Copaxone injection in EAE mice; type: in vivo, SJL/J female mice
Description: as §2
In mice treated with the Copaxone only (2 out of 7 mice), a skin lesion developed on the back at the site of repeated Copaxone injections.

acute EAE [3] = conditions: oral GA, rats; cited from earlier work
acute EAE [4] = conditions: oral GA, mice; cited from earlier work
acute EAE [5] = conditions: oral GA, rhesus monkeys; cited from earlier work

Compound | infiltration of immune cells into the white section of the spinal cord [1] | clinical score (EAE model in mice) | skin lesions (cutaneous wound) at the injection site, in words ([2]; CBD 5 mg/kg i.p. with or without Copaxone 1 mg/mouse s.c.) | effect on acute EAE (acute EAE [3]) | effect on acute EAE (acute EAE [4]) | skin lesion developed at the site of repeated Copaxone injections (incidence) ([2]; Copaxone only, 1 mg/mouse s.c.) | effect on acute EAE (acute EAE [5])
C=C(C)[C@@H]1CCC(C)=C[C@H]1c1c(O)cc(CCCCC)cc1O [CBD, 2-[(1R,6R)-6-isopropenyl-3-methylcyclohex-2-en-1-yl]-5-pentylbenzene-1,3-diol] | almost total reduction of such infiltration | significant decrease in clinical score; also recorded: significantly decreased clinical score | No suchlesions were observed | – | – | – | –
Glatiramer acetate [Copaxone] | almost total reduction of such infiltration | significantly decreased clinical score | – | suppress acute EAE | suppress acute EAE | 2 out of 7 | suppress acute EAE

From patent publication US20190314297A1, “COMBINATION THERAPY OF CBD AND COPAXONE” (TO PHARMACEUTICALS LLC, priority 2016, published 2019)
